Measured values taken from paper PMC6441019, “Prospective discovery of small molecule enhancers of an E3 ligase-substrate interaction” (Nature Communications, 2019).

Columns and labels:
[1] = molecular target: T1, S33E/S37A mutant β-catenin (Homo sapiens, UniProt P35222+Q9Y297, S33E/S37A); assay: β-catenin degradation in HEK293T cells stably expressing S33E/S37A β-catenin; assay type: cell-based; conditions: HEK293T stable line, 6 h, western
T1 construct: Full-length β-catenin (Myc/FLAG-tagged; Origene); expressed in transfected cells
Procedure: HEK293T cells were plated in a 10 cm dish in regular growth media (DMEM + 10% FBS) and allowed to adhere to the plate overnight. The following day, cells were transfected with S33E/S37 β-catenin using FuGeneHD transfection reagent. Transfected cells were then selected with media containing 700 μg/ml Geneticin. A pooled population of selected cells were used for all described experiments.
HEK293T cells expressing S33E/S37A β-catenin were plated in six-well plates at a density of 9 × 10^5 cells/well. The following day, cells were incubated with compounds diluted in regular growth media to the appropriate concentration. The final concentration of DMSO for all cell treatments was kept at 0.5% or less. Cell treatments with the Nedd8 inhibitor (MLN4924) and the proteasome inhibitor (MG132) were performed at a final concentration of 5 μM and 10 μM respectively. Cycloheximide treatment was performed at a final concentration of 100 μg/ml.

[2] = molecular target: T2, S33E/S37A β-catenin:β-TrCP interaction (Homo sapiens, UniProt P35222+Q9Y297, S33E/S37A); assay: Pull down from HEK293T cells treated with compound; assay type: cell-based; conditions: 50 μM, 6 h
T2 construct: a ternary complex with the full-length S33E/S37A β-catenin and β-TrCP in cells; evaluated for their ability to pull down endogenous β-TrCP; expressed in transfected cells; host or cells: HEK293T (transient, FuGeneHD); β-TrCP endogenous
Procedure: Pull down from cells treated with compound: HEK293T cells were plated in 10 cm dishes at a density of 1.2 × 10^6 cells per plate. Cells were transfected 24 h later with 2.5 µg of a WT or S33E/S37A Myc/FLAG-tagged β-catenin expression construct using the transfection reagent FuGeneHD. […] Cells were then liberated from 10 cm dishes using a cell scraper, pelleted, washed with PBS, resuspended in an equal volume of hypotonic lysis buffer (20 mM HEPES 7.5, 5 mM KCl, 1.5 mM MgCl2, 2 mM DTT, 0.01% TX-100, protease and phosphatase inhibitors, 1% DMSO), and sheered by eight passages through 21 G and 25 G needles. Samples were then supplemented up to 150 mM NaCl and clarified by centrifugation. Thirty microliters of each lysate was incubated over 10 µL of anti-c-myc magnetic beads (Pierce, Catalog #PI88842) and incubated at room temp with rotation for 30 min. Beads were pelleted, washed twice with lysis buffer, and resuspended in SDS loading buffer. Samples were analyzed by western blot.

[3] = molecular target: T3, full-length S33E/S37A β-catenin protein ubiquitylation by SCFβ-TrCP (Homo sapiens, UniProt P35222+Q9Y297, S33E/S37A); assay: In vitro ubiquitylation of full-length S33E/S37A β-catenin protein; assay type: biochemical
T3 construct: 6xHis-SMT3 (N, cleaved yes); host or cells: HEK293T (β-catenin); E. coli (β-TrCP1/Skp1); E. coli or SF9 (Cul1-Rbx1)
Procedure: (§1) Four micromolar of fluorescently-labeled β-catenin peptide (residues 17–60) were ubiquitylated in a buffer containing 25 mM Tris Cl (pH 7.5), 50 mM NaCl, 5 mM MgCl2, 2 mM ATP, and 1 mM DTT at room temperature in the presence of 62.5 μM Ubiquitin, 125 nM Ube1, 1.75 μM Cdc34A, and 100 nM neddylated SCF^β-TrCP in the presence or absence of compound (as indicated). Typically, individual reaction mixes with either Ubiquitin, Ube1 and Cdc34A or β-catenin, SCF^β-TrCP and compound were preincubated and subsequently mixed to initiate β-catenin ubiquitylation. Reactions were quenched by SDS loading buffer, resolved by SDS-PAGE and imaged for fluorescence. For full length β-catenin protein ubiquitylation 400 nM β-catenin and 400 nM SCF^β-TrCP were used instead.

[4] = molecular target: T4, S33E/S37A β-catenin peptide binding to β-TrCP (Homo sapiens, UniProt P35222+Q9Y297, S33E/S37A); assay: TR-FRET peptide binding assay, S33E/S37A peptide; conditions: read-out: binding affinity of S33E/S37A peptide
T4 construct: titrating BODIPY-FL-labeled β-catenin peptides (residues 17-48) against 300 pM β-TrCP; 6xHis-SMT3 (N, cleaved yes); made in house; host or cells: E. coli (co-expressed with BirA)
Procedure: (§2) Compounds were incubated in a 20 μl reaction volume with 300 pM biotinylated β-TrCP/Skp1 preincubated with 1.2 nM terbium-coupled streptavidin (Cisbio) and BODIPY-FL labeled β-catenin peptides (see figure legends for peptide details) in a white 384-well microplate (Perkin Elmer ProxiPlate), using a PBS buffer containing 0.01% Triton X-100 and 2 mM DTT with 2% final DMSO. […] Following 1-h incubation, plates were read for TR-FRET signal after excitation at 320 nm and read at 520 and 620 nm using an EnVision plate reader (Perkin Elmer). TR-FRET signal was calculated using a 520/620 nm ratio. Binding and enhancement data were fit to a standard Hill equation (Y = Bmin + (Bmax − Bmin)(X^h)/(X^h + EC50^h)) in Prism (GraphPad). Errors are standard error of the fit.

[5] = molecular target: T5, pSer33/S37A β-catenin peptide ubiquitylation by SCFβ-TrCP (Homo sapiens, UniProt P35222+Q9Y297, S37A); assay: In vitro ubiquitylation of pSer33/S37A β-catenin peptide; assay type: biochemical; conditions: forms long ubiquitin chains
T5 construct: fluorescently-labeled β-catenin peptide (residues 17–60; as indicated) was ubiquitylated; 6xHis-SMT3 (N, cleaved yes); made in house; host or cells: E. coli (β-TrCP1/Skp1); E. coli or SF9 (Cul1-Rbx1)
Procedure: as §1

[6] = molecular target: T6, Ser33/S37A β-catenin peptide ubiquitylation by SCFβ-TrCP (Homo sapiens, UniProt P35222+Q9Y297, S37A); assay: In vitro ubiquitylation of Ser33/S37A β-catenin peptide; assay type: biochemical
T6 construct: Ubiquitylation of Ser33/S37A β-catenin peptide (residues 17–60) by SCF^β-TrCP; 6xHis-SMT3 (N, cleaved yes); made in house; host or cells: E. coli (β-TrCP1/Skp1); E. coli or SF9 (Cul1-Rbx1)
Procedure: as §1

[7] = molecular target: T7, pSer33/S37A β-catenin peptide binding to β-TrCP (Homo sapiens, UniProt P35222+Q9Y297, S37A); assay: TR-FRET peptide binding and cooperativity assay, pSer33/S37A peptide
T7 construct: titrating BODIPY-FL-labeled β-catenin peptides (residues 17-48) against 300 pM β-TrCP; 6xHis-SMT3 (N, cleaved yes); made in house; host or cells: E. coli (co-expressed with BirA)
Procedure: as §2

[8] = molecular target: T4, S33E/S37A β-catenin peptide binding to β-TrCP; assay: TR-FRET binding enhancement assay, S33E/S37A peptide; conditions: 1% binding saturation
Procedure: as §2

[9] = molecular target: T8, endogenous S37A mutant β-catenin (Homo sapiens, UniProt P35222+Q9Y297, S37A); assay: Degradation of endogenous S37A β-catenin in TOV-112D cells; assay type: cell-based
T8 construct: host or cells: TOV-112D

T4 sequence (Q9Y297 1-569 isoform Q9Y297-2, stated change not applied): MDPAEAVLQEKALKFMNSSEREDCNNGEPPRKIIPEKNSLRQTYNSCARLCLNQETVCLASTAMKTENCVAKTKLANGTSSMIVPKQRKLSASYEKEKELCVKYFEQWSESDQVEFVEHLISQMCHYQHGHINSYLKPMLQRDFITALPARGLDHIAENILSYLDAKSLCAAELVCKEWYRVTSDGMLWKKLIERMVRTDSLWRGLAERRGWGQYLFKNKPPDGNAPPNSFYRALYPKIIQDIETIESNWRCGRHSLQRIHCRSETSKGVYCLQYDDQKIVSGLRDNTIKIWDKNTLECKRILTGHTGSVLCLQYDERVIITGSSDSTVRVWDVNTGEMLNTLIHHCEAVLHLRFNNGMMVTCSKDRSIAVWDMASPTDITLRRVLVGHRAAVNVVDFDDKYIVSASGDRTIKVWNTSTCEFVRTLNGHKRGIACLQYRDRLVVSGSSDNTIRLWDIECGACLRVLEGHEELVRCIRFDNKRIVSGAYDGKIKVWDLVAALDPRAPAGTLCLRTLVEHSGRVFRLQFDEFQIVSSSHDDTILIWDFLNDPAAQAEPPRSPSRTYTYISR
T4 sequence (P63208 whole entry partner, the tested form may be a part): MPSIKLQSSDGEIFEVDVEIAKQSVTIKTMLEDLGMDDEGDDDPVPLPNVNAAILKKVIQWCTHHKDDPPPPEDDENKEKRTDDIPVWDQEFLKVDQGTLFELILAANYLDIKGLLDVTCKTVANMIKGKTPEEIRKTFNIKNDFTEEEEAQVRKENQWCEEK
T4 sequence (P35222 17-48 S33E/S37A limits assumed): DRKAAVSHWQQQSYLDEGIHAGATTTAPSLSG
T3 sequence (Q9Y297 1-569 isoform Q9Y297-2, stated change not applied): as the sequence (Q9Y297 1-569 isoform Q9Y297-2, stated change not applied) above
T3 sequence (P63208 whole entry partner): as the sequence (P63208 whole entry partner, the tested form may be a part) above
T3 sequence (Q13616 whole entry partner): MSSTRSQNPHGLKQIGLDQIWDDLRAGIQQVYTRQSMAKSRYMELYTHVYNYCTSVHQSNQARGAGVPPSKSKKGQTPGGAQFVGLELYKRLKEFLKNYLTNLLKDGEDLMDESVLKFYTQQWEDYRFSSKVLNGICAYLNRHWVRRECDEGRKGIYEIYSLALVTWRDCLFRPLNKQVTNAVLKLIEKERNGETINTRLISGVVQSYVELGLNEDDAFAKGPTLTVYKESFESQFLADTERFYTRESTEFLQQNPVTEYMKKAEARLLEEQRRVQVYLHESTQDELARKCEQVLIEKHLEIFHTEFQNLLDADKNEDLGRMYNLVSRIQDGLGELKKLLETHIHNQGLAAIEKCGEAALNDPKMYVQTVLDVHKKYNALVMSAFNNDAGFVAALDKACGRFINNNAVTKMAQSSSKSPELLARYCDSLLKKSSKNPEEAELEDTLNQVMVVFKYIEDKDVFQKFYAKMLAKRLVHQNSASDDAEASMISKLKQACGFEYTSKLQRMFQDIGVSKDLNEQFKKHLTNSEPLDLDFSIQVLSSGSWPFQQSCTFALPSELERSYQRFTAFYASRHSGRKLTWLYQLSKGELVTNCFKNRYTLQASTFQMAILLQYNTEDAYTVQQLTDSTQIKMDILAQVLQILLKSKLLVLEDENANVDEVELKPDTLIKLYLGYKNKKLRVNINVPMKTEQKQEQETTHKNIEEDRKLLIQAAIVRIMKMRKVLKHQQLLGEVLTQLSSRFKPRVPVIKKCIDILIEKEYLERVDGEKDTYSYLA
T3 sequence (P62877 whole entry partner): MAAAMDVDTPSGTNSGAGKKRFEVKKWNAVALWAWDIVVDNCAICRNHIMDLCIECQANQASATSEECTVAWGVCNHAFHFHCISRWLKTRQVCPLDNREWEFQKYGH
T3 sequence (Q15843 1-76 partner limits assumed): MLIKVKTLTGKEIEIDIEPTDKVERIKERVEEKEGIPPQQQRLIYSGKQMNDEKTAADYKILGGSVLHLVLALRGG
T3 sequence (P35222 whole entry S33E/S37A): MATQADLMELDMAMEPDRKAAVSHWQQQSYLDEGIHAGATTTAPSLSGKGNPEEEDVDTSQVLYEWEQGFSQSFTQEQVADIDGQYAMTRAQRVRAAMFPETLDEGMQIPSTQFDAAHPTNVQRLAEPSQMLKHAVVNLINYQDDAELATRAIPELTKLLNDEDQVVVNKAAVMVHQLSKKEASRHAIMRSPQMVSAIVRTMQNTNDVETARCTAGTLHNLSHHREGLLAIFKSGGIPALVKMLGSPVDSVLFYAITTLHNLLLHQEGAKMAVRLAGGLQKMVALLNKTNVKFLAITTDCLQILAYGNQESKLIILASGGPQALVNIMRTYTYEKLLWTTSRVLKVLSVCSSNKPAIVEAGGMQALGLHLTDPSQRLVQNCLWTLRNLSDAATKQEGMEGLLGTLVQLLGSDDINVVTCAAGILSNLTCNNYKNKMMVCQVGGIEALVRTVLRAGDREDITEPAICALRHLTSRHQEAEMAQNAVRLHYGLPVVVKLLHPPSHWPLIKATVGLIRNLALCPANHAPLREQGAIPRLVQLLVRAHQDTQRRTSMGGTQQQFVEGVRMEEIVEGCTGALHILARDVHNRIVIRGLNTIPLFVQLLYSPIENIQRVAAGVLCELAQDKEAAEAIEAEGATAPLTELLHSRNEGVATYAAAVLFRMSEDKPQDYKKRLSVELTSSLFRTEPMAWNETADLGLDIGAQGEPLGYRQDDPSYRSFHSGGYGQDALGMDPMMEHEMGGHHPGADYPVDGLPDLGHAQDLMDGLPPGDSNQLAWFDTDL
T2 sequence (P35222 whole entry S33E/S37A): as above
T2 sequence (Q9Y297 whole entry, stated change not applied): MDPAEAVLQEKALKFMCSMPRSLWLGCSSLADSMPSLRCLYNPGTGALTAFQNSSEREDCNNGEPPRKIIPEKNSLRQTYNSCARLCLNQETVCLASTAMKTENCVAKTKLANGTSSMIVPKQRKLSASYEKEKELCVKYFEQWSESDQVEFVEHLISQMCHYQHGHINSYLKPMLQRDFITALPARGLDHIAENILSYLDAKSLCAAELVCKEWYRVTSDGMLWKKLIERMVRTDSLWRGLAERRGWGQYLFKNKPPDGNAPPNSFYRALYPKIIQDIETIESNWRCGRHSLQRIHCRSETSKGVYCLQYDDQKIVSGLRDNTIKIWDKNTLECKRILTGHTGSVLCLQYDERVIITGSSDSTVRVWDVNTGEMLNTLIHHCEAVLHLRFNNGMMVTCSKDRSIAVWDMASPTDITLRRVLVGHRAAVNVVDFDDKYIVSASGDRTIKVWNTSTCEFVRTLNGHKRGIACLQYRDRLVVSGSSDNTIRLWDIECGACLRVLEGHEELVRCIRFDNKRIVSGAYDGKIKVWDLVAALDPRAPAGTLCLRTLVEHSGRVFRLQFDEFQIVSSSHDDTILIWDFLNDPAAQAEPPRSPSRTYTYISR
T2 sequence (P63208 whole entry partner): as the sequence (P63208 whole entry partner, the tested form may be a part) above

N#Cc1cccc2c1CN(C(=O)c1c(Sc3c(Cl)cccc3Cl)cc(C(F)(F)F)[nH]c1=O)C2 [NRX-252114]
concentration at which degradation of S33E/S37A mutant β-catenin starts [1]: ~ 50 μM
S33E/S37A β-catenin:β-TrCP interaction in transfected cells [2]: robust S33E/S37A β-catenin:β-TrCP interaction
ligand concentration at which ubiquitin chain formation resembles WT β-catenin protein [3]: ≥ 10 µM
enhancement of ubiquitylation of S33E/S37A β-catenin protein ([3]; varying concentration): markedly enhances
Kd [4]: 6 nM
enhancement of ubiquitylation of pSer33/S37A β-catenin peptide [5]: further enhances
ubiquitylation of unphosphorylated Ser33/S37A β-catenin peptides [6]: potentiates the ubiquitylation
cooperativity of peptide binding to β-TrCP [7]: > 1500 fold
EC50 [8]: 1100 ± 30 nM
degradation of endogenous S37A mutant β-catenin [9]: did not induce degradation
